The Kinase Knowledgebase extract (Sharma et al. 2016)

Target: MAPK14 (human) (UniProt Q16539)
Assay: Inhibition of MAPK14 Kinase Activity

Sequence of MAPK14 (human) (Q16539 whole entry, looked up): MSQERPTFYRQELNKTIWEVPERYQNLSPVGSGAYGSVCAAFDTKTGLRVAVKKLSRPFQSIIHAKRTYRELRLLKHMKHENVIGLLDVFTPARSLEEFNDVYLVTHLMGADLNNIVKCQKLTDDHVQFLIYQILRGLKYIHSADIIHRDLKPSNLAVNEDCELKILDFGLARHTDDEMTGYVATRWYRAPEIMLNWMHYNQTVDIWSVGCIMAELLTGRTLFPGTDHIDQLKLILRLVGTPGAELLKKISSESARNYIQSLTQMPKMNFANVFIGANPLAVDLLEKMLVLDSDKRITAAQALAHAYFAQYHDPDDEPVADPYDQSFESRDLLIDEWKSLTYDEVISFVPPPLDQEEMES

IC50 [µM] | Structure (SMILES)
≤ 10 | CC(=O)Nc1ccc(CC2CCC(=O)N(c3c(Cl)cccc3Cl)C2)cc1 (stereo not drawn)
≤ 10 | COc1ccccc1CC1CCC(=O)N(c2c(Cl)cccc2Cl)C1 (stereo not drawn)
≤ 10 | COc1ccccc1SC1CCC(=O)N(c2c(Cl)ccnc2Cl)C1 (stereo not drawn)
≤ 10 | O=C(Cc1ccccc1)Nc1cnc(Cl)c(N2CC(Sc3ccc(F)cc3F)CCC2=O)c1Cl (stereo not drawn)
≤ 10 | O=C1CCC(Oc2ccc(F)cc2)CN1C1C(Cl)CCCC1Cl (stereo not drawn)
≤ 10 | O=C1CCC(Cc2ccc(F)cc2F)CN1c1c(Cl)ccc(O)c1Cl (stereo not drawn)
≤ 10 | O=C1CCC(Sc2ccc(F)cc2F)CN1c1c(Cl)cccc1Cl (stereo not drawn)
≤ 10 | COc1ccc(CC2CN(C)C(=O)N(c3c(Cl)cccc3Cl)C2)cc1 (stereo not drawn)
≤ 10 | COc1ccc(CC2CCC(=O)N(c3c(Cl)cncc3Cl)C2)cc1 (stereo not drawn)
≤ 10 | O=C1CCC(Cc2ccc(F)cc2F)CN1c1cc(NCCO)ccc1Cl (stereo not drawn)
≤ 10 | O=C1CCC(Oc2ccccc2F)CN1c1c(Cl)ccnc1Cl (stereo not drawn)
≤ 10 | Cc1cccc(C)c1N1C[C@H](Cc2ccc(F)cc2F)C[C@@H](C)C1=O
≤ 10 | Nc1cc(Cl)c(N2CC(Cc3ccc(F)cc3F)SCC2=O)c(Cl)c1 (stereo not drawn)
≤ 10 | O=C1CCC(Sc2ccc(F)cc2F)CN1c1c(Cl)ccnc1Cl (stereo not drawn)
≤ 10 | O=C1CCC(Cc2ccc(F)cc2F)CN1c1c(Cl)ncc(O)c1Cl (stereo not drawn)
≤ 10 | CC(=O)Nc1ccc(Cl)c(N2CC(Cc3ccc(F)cc3F)COC2=O)c1Cl (stereo not drawn)
≤ 10 | O=C1CCC(Sc2cc(F)cc(F)c2)CN1c1c(Cl)csc1Cl (stereo not drawn)
≤ 10 | Cc1ccc(SC2CCC(=O)N(c3c(Cl)cncc3Cl)C2)cc1 (stereo not drawn)
≤ 10 | CC(=O)NC1CC(Cl)C(N2CC(Cc3ccc(F)cc3F)CCC2=O)C(Cl)C1 (stereo not drawn)
≤ 10 | Cc1cccc(C)c1N1CC(Cc2ccccc2O)CCC1=O (stereo not drawn)
≤ 10 | CCOC(=O)CNc1cc(Cl)c(N2CC(Cc3ccc(F)cc3F)CCC2=O)c(Cl)c1 (stereo not drawn)
≤ 10 | CC(=O)Nc1cc(Cl)c(N2CC(Sc3ccc(F)cc3F)CCC2=O)c(Cl)n1 (stereo not drawn)
≤ 10 | O=C1CCC(Cc2ccc(F)cc2F)CN1c1c(Cl)cc(NCCN2CCCCC2)cc1Cl (stereo not drawn)

IC50 [µM] | Structure (SMILES)
≤ 10 | O=C1CCC(Sc2ccc(F)cc2)CN1c1c(Cl)csc1Cl (stereo not drawn)
≤ 10 | O=C1OCC(Cc2ccc3ccccc3c2)CN1c1c(Cl)cccc1Cl (stereo not drawn)
≤ 10 | CNc1cc(Cl)c(N2CC(Oc3ccc(F)cc3F)CCC2=O)c(Cl)c1 (stereo not drawn)
≤ 10 | O=C1CCC(Cc2ccc(F)cc2F)CN1C1C(Cl)CCCC1Cl (stereo not drawn)
≤ 10 | Cc1cc(C#CCCCO)cc(C)c1N1CC(Cc2ccc(F)cc2F)CCC1=O (stereo not drawn)
≤ 10 | O=C1CCC(Oc2ccc(F)cc2F)CN1C1C(Cl)CCC(CO)C1Cl (stereo not drawn)
≤ 10 | O=C1CCC(Sc2ccccc2F)CN1c1c(Cl)cncc1Cl (stereo not drawn)
≤ 10 | Cc1ccc(OC2CCC(=O)N(c3c(Cl)csc3Cl)C2)c(C)c1 (stereo not drawn)
≤ 10 | O=C1CCC(Oc2cc(Cl)cc(Cl)c2)CN1c1c(Cl)csc1Cl (stereo not drawn)
≤ 10 | Cc1ccc(SC2CCC(=O)N(c3c(Cl)csc3Cl)C2)cc1 (stereo not drawn)
≤ 10 | CNC1CC(Cl)C(N2CC(Cc3ccc(F)cc3F)CCC2=O)C(Cl)C1 (stereo not drawn)
≤ 10 | O=C1NCC(Cc2ccccc2)CN1c1c(Cl)cccc1Cl (stereo not drawn)
≤ 10 | O=C(Cc1ccccc1)Nc1cc(Cl)c(N2CC(Cc3ccc(F)cc3F)COC2=O)c(Cl)c1 (stereo not drawn)
≤ 10 | Cc1ccccc1CC1CCC(=O)N(C2C(Cl)CCCC2Cl)C1 (stereo not drawn)
≤ 10 | O=C1NCC(Cc2ccc(F)cc2F)CN1c1c(Cl)ccc(CO)c1Cl (stereo not drawn)
≤ 10 | O=C1CCC(Sc2ccccc2Cl)CN1c1c(Cl)cccc1Cl (stereo not drawn)
≤ 10 | Cc1cc(C)cc(SC2CCC(=O)N(c3c(Cl)cncc3Cl)C2)c1 (stereo not drawn)
≤ 10 | O=C1CCC(Oc2ccc(Cl)cc2)CN1c1c(Cl)cccc1Cl (stereo not drawn)
≤ 10 | O=C1CCC(Sc2ccccc2F)CN1C1C(Cl)CCCC1Cl (stereo not drawn)
≤ 10 | CN(C)CCCc1cc(Cl)c(N2CC(Cc3ccc(F)cc3F)CCC2=O)c(Cl)c1 (stereo not drawn)
≤ 10 | CNc1sc(Cl)c(N2CC(Sc3ccc(F)cc3F)CCC2=O)c1Cl (stereo not drawn)
≤ 10 | O=C1CCC(Cc2ccc3ccccc3c2)CN1c1c(Cl)cccc1Cl (stereo not drawn)
≤ 10 | CC(=O)N1CC(=O)N(c2c(Cl)cccc2Cl)CC1Cc1ccc(F)cc1F (stereo not drawn)

IC50 [µM] | Structure (SMILES)
≤ 10 | CNc1cc(Cl)c(N2CC(Cc3ccc(F)cc3F)CN(C)C2=O)c(Cl)c1 (stereo not drawn)
≤ 10 | Nc1ccc(Cl)c(N2CC(Cc3ccc(F)cc3F)CCC2=O)c1Cl (stereo not drawn)
≤ 10 | O=C1CCC(Cc2ccc(F)cc2F)CN1c1c(Cl)ccc(CO)c1Cl (stereo not drawn)
≤ 10 | O=C1CC[C@@H](Cc2ccc(F)cc2F)CN1c1c(Cl)cccc1Cl
≤ 10 | CN(C)CCNc1cc(Cl)c(N2CC(Cc3ccc(F)cc3F)CCC2=O)c(Cl)c1 (stereo not drawn)
≤ 10 | Nc1cc(Cl)c(N2CC(Oc3ccc(F)cc3F)CCC2=O)c(Cl)n1 (stereo not drawn)
≤ 10 | O=C1CCC(Sc2cccc3ccccc23)CN1c1c(Cl)csc1Cl (stereo not drawn)
≤ 10 | Nc1ncc(Cl)c(N2CC(Cc3ccc(F)cc3F)CCC2=O)c1Cl (stereo not drawn)
≤ 10 | O=C1CCC(Oc2cccc3ccccc23)CN1c1c(Cl)ccnc1Cl (stereo not drawn)
≤ 10 | O=C1CCC(Oc2ccccc2)CN1c1c(Cl)cncc1Cl (stereo not drawn)
≤ 10 | O=C1CCC(Cc2ccccc2)CN1c1ccccc1Cl (stereo not drawn)
≤ 10 | CNc1cnc(Cl)c(N2CC(Oc3ccc(F)cc3F)CCC2=O)c1Cl (stereo not drawn)
≤ 10 | O=C1CCC(Oc2ccccc2)CN1c1c(Cl)csc1Cl (stereo not drawn)
≤ 10 | O=C1NCC(Cc2ccccc2Cl)CN1c1c(Cl)cccc1Cl (stereo not drawn)
≤ 10 | O=C1CCC(Cc2ccc(F)cc2F)CN1c1c(Cl)cnc(CO)c1Cl (stereo not drawn)
≤ 10 | O=C1OCC(Cc2ccc(F)cc2F)CN1c1c(Cl)cc(CO)cc1Cl (stereo not drawn)
≤ 10 | O=C1CCC(Sc2ccccc2F)CN1c1c(Cl)cccc1Cl (stereo not drawn)
≤ 10 | Nc1cnc(Cl)c(N2CC(Cc3ccc(F)cc3F)CCC2=O)c1Cl (stereo not drawn)
≤ 10 | O=C1OCC(Cc2ccccc2F)CN1c1c(Cl)cccc1Cl (stereo not drawn)
≤ 10 | CC(=O)Nc1cnc(Cl)c(N2CC(Cc3ccc(F)cc3F)CCC2=O)c1Cl (stereo not drawn)
≤ 10 | O=C1[C@H](O)C[C@@H](Cc2ccc(F)cc2F)CN1c1c(Cl)cccc1Cl
≤ 10 | O=C1CCC(Cc2ccc(F)cc2F)CN1c1c(Cl)cc(NCCn2ccnc2)cc1Cl (stereo not drawn)
≤ 10 | Nc1cc(Cl)c(N2CC(Cc3ccc(F)cc3F)CNC2=O)c(Cl)c1 (stereo not drawn)

IC50 [µM] | Structure (SMILES)
≤ 10 | O=C(Cc1ccccc1)Nc1sc(Cl)c(N2CC(Sc3ccc(F)cc3F)CCC2=O)c1Cl (stereo not drawn)
≤ 10 | O=C(Cc1ccccc1)Nc1ccc(Cl)c(N2CC(Cc3ccc(F)cc3F)COC2=O)c1Cl (stereo not drawn)
≤ 10 | O=C(Cc1ccccc1)Nc1ccc(Cl)c(N2CC(Cc3ccc(F)cc3F)OCC2=O)c1Cl (stereo not drawn)
≤ 10 | O=C1CCC(Cc2ccc(F)cc2F)CN1c1c(Cl)csc1Cl (stereo not drawn)
≤ 10 | CNc1ccc(Cl)c(N2CC(Cc3ccc(F)cc3F)CNC2=O)c1Cl (stereo not drawn)
≤ 10 | CC(=O)NCCN(C(=O)OC(C)(C)C)c1cc(Cl)c(N2CC(Cc3ccc(F)cc3F)CCC2=O)c(Cl)c1 (stereo not drawn)
≤ 10 | CC(=O)Nc1cc(Cl)c(N2CC(Sc3ccc(F)cc3F)CCC2=O)c(Cl)c1 (stereo not drawn)
≤ 10 | CCNC(=O)Nc1cc(Cl)c(N2CC(Cc3ccc(F)cc3F)CCC2=O)c(Cl)c1 (stereo not drawn)
≤ 10 | O=C1OCC(Cc2ccc(F)cc2F)CN1c1c(Cl)ccc(CO)c1Cl (stereo not drawn)
≤ 10 | O=C1CCC(Oc2cc(F)cc(F)c2)CN1c1c(Cl)cncc1Cl (stereo not drawn)
≤ 10 | NC(=O)CNc1cc(Cl)c(N2CC(Cc3ccc(F)cc3F)CCC2=O)c(Cl)c1 (stereo not drawn)
≤ 10 | O=C1CCC(Cc2ccc(F)cc2F)CN1c1c(Cl)cnc(O)c1Cl (stereo not drawn)
≤ 10 | Cc1ccc(OC2CCC(=O)N(C3C(Cl)CCCC3Cl)C2)c(C)c1 (stereo not drawn)
≤ 10 | CCOC(=O)CCNC(=O)c1cc(C)c(N2CC(Cc3ccc(F)cc3F)CCC2=O)c(C)c1 (stereo not drawn)
≤ 10 | O=C1CCC(Sc2ccccc2Cl)CN1c1c(Cl)csc1Cl (stereo not drawn)
≤ 10 | O=C1NCC(Cc2ccc(F)cc2F)CN1c1c(Cl)cc(Br)cc1Cl (stereo not drawn)
≤ 10 | O=C1CCC(Cc2cc(F)cc(F)c2)CN1c1c(Cl)cncc1Cl (stereo not drawn)
≤ 10 | O=C(Cc1ccccc1)NC1CC(Cl)C(N2CC(Sc3ccc(F)cc3F)CCC2=O)C(Cl)C1 (stereo not drawn)
≤ 10 | O=C1COC(Cc2ccccc2Cl)CN1c1c(Cl)cccc1Cl (stereo not drawn)
≤ 10 | O=C(Cc1ccccc1)Nc1sc(Cl)c(N2CC(Cc3ccc(F)cc3F)CCC2=O)c1Cl (stereo not drawn)
≤ 10 | COc1ccc(CC2CCC(=O)N(c3c(Cl)csc3Cl)C2)cc1 (stereo not drawn)
≤ 10 | O=C1CCC(Oc2ccc(F)cc2F)CN1C1C(Cl)CCCC1Cl (stereo not drawn)
≤ 10 | O=C1CCC(Sc2ccc(Cl)cc2Cl)CN1C1C(Cl)CCCC1Cl (stereo not drawn)

IC50 [µM] | Structure (SMILES)
≤ 10 | O=C(CCCCO)Nc1cc(Cl)c(N2CC(Cc3ccc(F)cc3F)CCC2=O)c(Cl)c1 (stereo not drawn)
≤ 10 | CC(=O)NC1CCC(Cl)C(N2CC(Sc3ccc(F)cc3F)CCC2=O)C1Cl (stereo not drawn)
≤ 10 | O=C1CCC(Cc2ccc(F)cc2F)CN1c1cc(Cl)cc(Cl)c1 (stereo not drawn)
≤ 10 | O=Cc1ccccc1CC1CCC(=O)N(c2c(Cl)cccc2Cl)C1 (stereo not drawn)
≤ 10 | O=C1CSC(Cc2ccc(F)cc2)CN1c1c(Cl)cccc1Cl (stereo not drawn)
≤ 10 | COc1ccccc1CC1CSC(=O)N(c2c(Cl)cccc2Cl)C1 (stereo not drawn)
≤ 10 | Cc1ccc(CC2CSC(=O)N(c3c(Cl)cccc3Cl)C2)c(C)c1 (stereo not drawn)
≤ 10 | O=C(O)CNc1cc(Cl)c(N2CC(Cc3ccc(F)cc3F)CCC2=O)c(Cl)c1 (stereo not drawn)
≤ 10 | Cc1ccc(CC2CN(c3c(Cl)cccc3Cl)C(=O)CO2)c(C)c1 (stereo not drawn)
≤ 10 | O=C1CCC(Sc2ccc3ccccc3c2)CN1C1C(Cl)CCCC1Cl (stereo not drawn)
≤ 10 | CCOC(=O)COc1ccccc1CC1CCC(=O)N(c2c(C)cccc2C)C1 (stereo not drawn)
≤ 10 | O=C1OCC(Cc2ccccc2Cl)CN1c1c(Cl)cccc1Cl (stereo not drawn)
≤ 10 | CN1CC(Cc2ccc(F)cc2F)CN(c2c(Cl)cc(CO)cc2Cl)C1=O (stereo not drawn)
≤ 10 | O=C1CCC(Cc2ccc(Cl)cc2Cl)CN1c1c(Cl)ccnc1Cl (stereo not drawn)
≤ 10 | O=C(Cc1ccccc1)NC1CCC(Cl)C(N2CC(Cc3ccc(F)cc3F)CCC2=O)C1Cl (stereo not drawn)
≤ 10 | O=C1CCC(Sc2cc(F)cc(F)c2)CN1c1c(Cl)ccnc1Cl (stereo not drawn)
≤ 10 | O=C1CCC(Oc2ccc(F)cc2F)CN1C1C(Cl)CC(O)CC1Cl (stereo not drawn)
≤ 10 | CC1(C)NC(=O)N(CCNc2cc(Cl)c(N3CC(Cc4ccc(F)cc4F)CCC3=O)c(Cl)c2)C1=O (stereo not drawn)
≤ 10 | Cc1cccc(C)c1N1C[C@@H](NS(=O)(=O)c2ccc(F)cc2F)CCC1=O
≤ 10 | Cc1cc(NC(=O)OC(C)(C)C)cc(C)c1N1CC(Cc2ccc(F)cc2F)CNC1=O (stereo not drawn)
≤ 10 | CN(C)NC(=O)CNc1cc(Cl)c(N2CC(Cc3ccc(F)cc3F)CCC2=O)c(Cl)c1 (stereo not drawn)
